According to patent publication US9241996B2, “Photochemical internalisation of kinase inhibitors” (PCI BIOTECH AS, priority 2008, dated 2016):
Read-outs that look alike come from different tables or passages of the source.

Legend:
[1] = tested on: A-431 human skin carcinoma; test: Growth inhibition (Coulter counting, survival fraction) after PDT with TPPS2a, AG1478 and the combination (Example 3); assay type: cell-based; details: for synergy/antagonism value F: p=0.05
Procedure: The studies were performed using the EGFR positive cell line A-431 human skin carcinoma (ATCC, CRL 1555). The A-431 cells were subcultured two or three times a week in DMEM (Bio Whitaker Europe, Velviers, Belgium). Media were supplied with 10% fetal calf serum (FCS) (GIBCO BRL, Paisley, UK), 100 U/ml penicillin, 100 U/ml streptomycin (Sigma, St. Loice, MO) and 2 mM glutamine (Bio Whittaker, Velviers, Belgium). The cells were grown and incubated in 75 cm^2 flasks (Nunc, Roskilde, Denmark) at 37° C. in a humidified atmosphere containing 5% CO2.
(§1) A-431 cells were seeded out and left to fasten for 6 hrs, or longer as described for the different combination treatment regimes with Tyrphostin AG1478, before an 18 hour incubation with 0.1 ug/ml LumiTrans (TPPS2a, meso-tetraphenylporphine with two sulfonate groups on adjacent phenyl rings) (PCI Biotech AS, Oslo, Norway). The cells were then washed twice with drug free medium and chased in new drug free medium for 4 hrs to wash the TPPS2a off the plasma membrane. Cells were then exposed to blue light from LumiSource (PCT Biotech AS) consisting of 4 light tubes delivering light with λ=[…], maximum at 435 nm and irradiance=13.5 mW/cm^2 at different doses as indicated in the figures.
Growth inhibition measurements were carried out after incubation of the cells for 72 hrs with different concentrations of AG1478 directly after exposure to light. Cell counting was performed with an in-house made Coulter counter after trypsination and resuspension in PBS. Two parallels of each sample were made, and the experiments were reproduced twice at least.
For each experiment the survival fraction (SF) of cells was found by dividing the number of treated cells by the average number of untreated cells in the two parallels. The expected additive effect was computed as SFadd=SFPDT×SFTKI where SFPDT and SFTKI refers to the observed effect after PDT or TKI treatment alone. SFadd was then compared to the observed effect of the combined treatment, SFcomb, using the synergy/antagonism value F F=log SFadd/log SFComb=log SFTKI+log SFPDT−log SFcorab
Antagonistic effects would result in negative F values. Significant deviations of F from zero were established through t-tests.

EGFR = target: T1, EGFR (Homo sapiens, UniProt P00533); test: Western blotting of total and phosphorylated EGFR after PDT, AG1478 and the combination; assay type: cell-based
T1 construct: time dependent effects on total and phosphorylated EGFR after PDT˜LD50, AG1478 (TKI)˜LD50 and the combination treatment in A-431 cells; endogenous in cells; host or cells: A-431 human skin carcinoma cells (ATCC, CRL 1555)
Procedure: as §1
At indicated times after light exposure the cell-medium was removed and cells were incubated for 2 minutes with 100 ng/ml EGF. Cells were then placed on ice and the sample preparation was performed as described before (Weyergang et al., 2007, Biochem. Pharmacol., 74, p226-235). The same amount of lysed cells from each sample, as measured by the absorption of nucleic acids at 260 nm, was subjected to gel electrophoresis on 12% SDS/polyacrylamide gels and blotted to Hybond-P PVDF membranes (Amersham Biosciences, Amersham Place, UK). Immunodetection was carried out using antibodies from Cell Signal Technology (Cell Signalling Technology Beverly, Mass.); EGFR antibody (#2232), Phospho-EGFR antibody (#2236), Anti-mouse IgG, HRP-linked Antibody (#7076) Anti-rabbit IgG, HRP-linked Antibody (#7074). ECL Plus Western blotting Detection Reagents, STORM and Image Quant from GE Healthcare (GE Healthcare, Amersham Place, UK) was used to detect protein bands on the membrane.

[2] = tested on: multi-drug resistant NCI-ADR-RES cancer cell line; test: CellTiter-Blue cell survival after PCI (TPCS2a, LumiSource illumination) with TKI, NCI-ADR-RES; assay type: cell-based; details: for IC50: Homo sapiens, NCI/ADR-RES, read-out: nilotinib dose needed to achieve 50% cell killing
Procedure: TPCS2a was diluted into growth medium at 0.4 μg/ml (NCI-H460) or 0.8 μg/ml (NCI-ADR-RES) and 25 μl was added to each test well (final assay concentrations 0.2 μg/ml and 0.4 μg/ml, respectively).
The plates were washed 6 times with 50 μl wash buffer using an EMBLA 384-well plate washer.
The plates were washed as before.

[3] = at typical therapeutic doses per patient per day; cited from earlier work
[4] = tested on: NCI-H460 human lung cancer cell line; test: CellTiter-Blue cell survival after PCI (TPCS2a, LumiSource illumination) with TKI, NCI-H460; details: for IC50: Homo sapiens, read-out: nilotinib dose needed to achieve 50% cell killing
A431 cells = test: Cell survival by MTT assay after TPCS2a photochemical treatment and imatinib (Example 2); assay type: cell-based, human; details: imatinib up to 25 μM
Procedure: A431 cells (2500 cells/well, 100 μL/well) were seeded into 96-well plates (Nunc, Denmark) and incubated for 5 hours, then 0.1 μg/mL TPCS2a was added and incubated for 18 h (5% v/v CO2, 37° C., DMEM medium with penicillin 100 U/mL, Glutamine 2 mM, Streptomycin 100 μg/mL). […] After a further 72 hours incubation, cell survival was measured by the MTT assay.
The MTT method is based on reduction of a water-soluble tetrazolium salt (MTT) to a purple, insoluble formazan product by mitochondrial dehydrogenases present in living, metabolically active cells. 100 μL medium containing 0.25 μg MTT was added to the cells, followed by 1 h and 30 min of incubation (37° C., 5% v/v CO2). The resulting formazan crystals were dissolved by adding 100 μl DMSO (Sigma, Mo., USA) per well. The 96 well plate was read by a Multiscan EX micro plate reader (Labsystems, Finland) with a 570 nm band pass filter.

[5] = tested on: A431 human epithelial carcinoma cell line; test: Cell survival by Coulter Counter after TPCS2a photochemical treatment and imatinib (Example 1); assay type: cell-based
Procedure: Cells from the A431 human epithelial carcinoma cell line (75,000 cells/well, 1.5 mL/well) were seeded into 6-well plates (Nunc, Denmark), incubated for 5 hours, then 0.1 μg/mL TPCS2a was added and the cells were further incubated for 18 h (5% v/v CO2, 37° C. in DMEM medium with penicillin 100 U/mL, Glutamine 2 mM, Streptomycin 100 μg/mL). The cells were washed twice with medium (1 mL/well), incubated for 4 hours (37° C., 5% v/v CO2) in serum-containing medium and illuminated for 1, 2 or 4 minutes as shown in FIG. 2.
The cells were washed twice with Trypsin EDTA (200 μL/well) and incubated for 5 minutes (400 μL/well), then 1.5 mL medium was added and the mixture transferred to 10 mL tubes and centrifuged for 3 minutes at 1000 rpm. After removing the medium, 1 mL PBS (Phosphate Buffered Saline) was added and the solution mixed thoroughly. 750 μL was transferred to a beaker with 20 mL PBS and the amount of viable cells was determined with a Coulter Counter apparatus.

T1 sequence (P00533 25-1210): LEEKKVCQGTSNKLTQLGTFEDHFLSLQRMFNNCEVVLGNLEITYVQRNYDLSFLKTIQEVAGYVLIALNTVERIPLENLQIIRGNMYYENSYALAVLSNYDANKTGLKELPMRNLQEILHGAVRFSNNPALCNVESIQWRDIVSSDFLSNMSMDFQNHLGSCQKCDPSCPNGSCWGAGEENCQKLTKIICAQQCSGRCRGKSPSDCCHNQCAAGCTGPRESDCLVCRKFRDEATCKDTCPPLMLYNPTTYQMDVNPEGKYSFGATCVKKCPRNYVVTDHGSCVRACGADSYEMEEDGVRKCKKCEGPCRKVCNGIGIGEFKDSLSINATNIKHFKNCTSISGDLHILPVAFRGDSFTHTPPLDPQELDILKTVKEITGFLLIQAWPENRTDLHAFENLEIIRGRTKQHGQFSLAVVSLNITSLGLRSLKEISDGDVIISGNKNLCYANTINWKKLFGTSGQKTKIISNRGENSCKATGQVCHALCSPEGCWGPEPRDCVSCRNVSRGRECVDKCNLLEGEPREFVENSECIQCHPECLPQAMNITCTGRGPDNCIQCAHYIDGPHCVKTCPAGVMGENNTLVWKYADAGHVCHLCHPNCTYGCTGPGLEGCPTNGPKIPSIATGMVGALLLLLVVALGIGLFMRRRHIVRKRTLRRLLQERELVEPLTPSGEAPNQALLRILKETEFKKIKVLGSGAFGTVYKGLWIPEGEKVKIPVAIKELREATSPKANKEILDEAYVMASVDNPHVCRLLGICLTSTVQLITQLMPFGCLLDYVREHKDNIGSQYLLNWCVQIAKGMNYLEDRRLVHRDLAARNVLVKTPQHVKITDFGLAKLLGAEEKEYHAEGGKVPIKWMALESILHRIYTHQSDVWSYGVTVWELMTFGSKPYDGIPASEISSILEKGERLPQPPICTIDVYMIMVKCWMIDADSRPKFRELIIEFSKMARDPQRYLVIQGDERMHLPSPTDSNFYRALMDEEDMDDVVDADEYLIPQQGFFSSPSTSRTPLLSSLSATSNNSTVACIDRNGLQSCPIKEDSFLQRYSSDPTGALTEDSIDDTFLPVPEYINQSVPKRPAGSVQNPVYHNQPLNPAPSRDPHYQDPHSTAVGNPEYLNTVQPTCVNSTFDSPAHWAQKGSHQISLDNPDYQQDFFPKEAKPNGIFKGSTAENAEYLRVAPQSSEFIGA

Q: Which “synergy/antagonism value F” value ([1]; 4 uM AG1478 with PDT) does the source give for COc1cc2ncnc(Nc3cccc(Cl)c3)c2cc1OC [AG1478, Tyrphostin AG1478] here?
A: 0.18±0.09

Q: And the “synergy/antagonism value F” value ([1]; 5 uM AG1478 with PDT)?
A: 0.17±0.08

Q: And the “average survival fraction, TKI treatment only” value ([1]; AG1478 72 hrs, mean of three independent experiments (FIG. 6: 4 and 5 μM TKI))?
A: 0.41

Q: And the “average survival fraction, two treatments combined” value ([1]; AG1478 administrated directly after light exposure (PDT), mean of three independent experiments)?
A: 0.16

Q: What about the “synergy/antagonism value F, mean and st. error” value ([1]; AG1478 between 1 and 5 μM with PDT, p=0.005) of the same compound?
A: 0.15 ± 0.05

Q: What about the “synergy/antagonism parameter F of the experiments” value ([1]; AG1478 with PDT, three independent experiments) of the same compound?
A: positive and statistically significant from 0

Q: And the “calculated additive effect of the two treatments (SFadd)” value ([1]; SFPDT×SFTKI)?
A: 0.24

Q: What about the EGFR phosphorylation (EGFR; 4 μM AG1478 alone, 1-4 hrs, A-431 cells) of the same compound?
A: strong attenuation of EGFR phosphorylation

Q: What about the “EGFR phosphorylation, combination therapy” value (EGFR; PDT (LD50) and AG1478, A-431 cells) of the same compound?
A: same decrease in EGFR phosphorylation as that observed with the AG1478 treatment alone

Q: What does the source list for O=S(=O)(O)c1ccc(-c2c3nc(c(-c4ccc(S(=O)(=O)O)cc4)c4ccc([nH]4)c(-c4ccccc4)c4nc(c(-c5ccccc5)c5ccc2[nH]5)C=C4)C=C3)cc1 [PDT, meso-tetraphenylporphine with two sulfonate groups on adjacent phenyl rings]?
A: average survival fraction, PDT treatment only ([1]; TPPS2a 0.1 ug/ml and blue light, mean of three independent experiments): 0.61; phosphorylated EGFR after PDT alone (EGFR; 1-4 hrs after PDT with LD50, A-431 cells): No decrease in phosphorylated EGFR was observed; phospho-EGFR after PDT alone (EGFR; measured 1 hour after PDT, doses reducing relative viability up to 10% of untreated, A-431 cells): did not result in a pronounced reduction

Q: With C#Cc1cccc(Nc2ncnc3cc(OCCOC)c(OCCOC)cc23)c1 [erlotinib] as the compound, how does the “erlotinib dose at which 20% cell killing was achieved” value ([2]; 2 min illumination, TPCS2a 0.4 μg/ml) read?
A: about 100 μM

Q: What about the “erlotinib dose at which 20% cell killing was achieved” value ([2]; 3 min illumination, TPCS2a 0.4 μg/ml) of the same compound?
A: about 100 μM

Q: What about the “erlotinib dose at which 20% cell killing was achieved” value ([2]; 4 min illumination, TPCS2a 0.4 μg/ml) of the same compound?
A: about 10 μM

Q: What about the typical blood concentrations [3] of the same compound?
A: 1 to 10 µM

Q: And the “erlotinib dose needed to induce 30% cell killing” value ([4]; 2 min illumination, TPCS2a 0.2 μg/ml)?
A: 14 µM

Q: And the “erlotinib dose needed to induce 30% cell killing” value ([4]; 3 min illumination, TPCS2a 0.2 μg/ml)?
A: 4 µM

Q: And the “potentiation of the effect by photochemical internalisation” value ([4]; erlotinib, NCI-H460, 3 min versus no illumination)?
A: 10 times

Q: What about the “erlotinib dose needed to induce 30% cell killing” value ([4]; no illumination) of the same compound?
A: 43 µM

Q: Which “cytotoxicity of imatinib alone” value (A431 cells; 0 s illumination, 72 hours) does the source give for Cc1ccc(NC(=O)c2ccc(CN3CCN(C)CC3)cc2)cc1Nc1nccc(-c2cccnc2)n1 [imatinib] here?
A: only modest cytotoxicity even at the highest dose

Q: What about the “cytotoxic effect with illumination” value (A431 cells; TPCS2a 0.1 μg/mL, 60 or 120 s illumination, corrected for photochemical treatment alone) of the same compound?
A: illumination increased the cytotoxic effect of imatinib in a light dose-dependent manner

Q: And the “cytotoxicity versus photochemical treatment alone” value ([5]; imatinib 5×10^-6 M, TPCS2a 0.1 μg/mL, illuminated 1, 2 or 4 minutes, 72 hour incubation)?
A: substantially higher cytotoxicity

Q: And the “effect on cell survival” value ([5]; imatinib 5×10^-6 M, without illumination, TPCS2a-treated A431 cells, 72 hour incubation)?
A: no significant effect on cell survival

Q: Which IC50 ([2]; 0 h, 0 min illumination) does the source give for Cc1cn(-c2cc(NC(=O)c3ccc(C)c(Nc4nccc(-c5cccnc5)n4)c3)cc(C(F)(F)F)c2)cn1 [nilotinib] here?
A: ~20 µM

Q: And the IC50 ([2]; 4 min, 4 min illumination, TPCS2a 0.4 μg/ml)?
A: ~10 µM

Q: And the typical blood concentrations [3]?
A: 1 to 5 µM

Q: And the IC50 ([4]; NCI-H460, 0 h)?
A: 6 µM

Q: And the IC50 ([4]; NCI-H460, 5 min)?
A: ~1.7 µM

Q: With “tetraphenyl chlorin disulfonate [TPCS2a]” as the compound, how does the “cell survival, illumination alone” value ([5]; TPCS2a 0.1 μg/mL, illuminated 1, 2 or 4 minutes, no imatinib) read?
A: cell survival decreases with increasing illumination time in a dose-dependent manner
